Results reported in patent publication US7238716B2, “Alkanoic acid derivatives process for their production and use thereof” (Takeda Pharmaceuticals Company Limited, priority 2000, dated 2007).
Like-named read-outs stand apart in the source and are kept apart here.

Experiments:
KKAY mice = assay: Hypoglycemic and hypolipidemic actions in mice (Test Example 1); type: in vivo; conditions: Mus musculus, po, 96 h, 0.005% in powdery diet, four days
Source text: Test compounds were mixed in a powdery diet (CE-2, Japan Clea) at the concentration of 0.01% (compounds of Examples 7, 26, 29, 32) or 0.005% (compounds of Examples 1, 11, 15, 18, 24, 36, 37, 41, 48, 50, 51, 52, 58, 62, 79, 83, 88, 90, 91, 92, 93, 97, 107, 110, 115, 119, 122, 125, 129 and 130), and freely given to KKAY mice (11 to 12 weeks old, 5 mice in a group), a model of type 2 diabetes mellitus, for four days. During this period, water was given freely. Blood was sampled from orbital venous plexus, and glucose and triglyceride levels in plasma separated from blood were determined enzymatically using L type Wako Glu2 (Wako Pure Chemical Industries, Ltd.) or L type Wako TG.H (Wako Pure Chemical Industries, Ltd.), respectively.
In the Table, “hypoglycemic action (%)” means a percent reduction (%) of the glucose level in the test compound administration group when that of the test compound non-administration group is taken as 100%. In addition, the “hypolipidemic action (%)” means a percent reduction (%) of the triglyceride level in the test compound administration group when that of the test compound non-administration group is taken as 100%.

KKA^y mice = assay: Total cholesterol lowering action and plasma anti-arteriosclerosis index enhancing action in mice (Test Example 2); type: in vivo; conditions: Mus musculus, po, 96 h, 0.005% in powdery diet, four days; for change in vivo at 0.005 %: percent increase of [(HDL cholesterol/total cholesterol)×100] vs non-administration group; for inhibition in vivo at 0.005 %: percent reduction of plasma total cholesterol level vs non-administration group
Source text: Test compounds were mixed in a powdery diet (CE-2, Japan Clea) the concentration of 0.01% (compounds of Examples 7, 26, 29 and 32) or 0.005% (compounds of Examples 1, 11, 15, 18, 24, 36, 37, 41, 48, 50, 51, 52, 58, 62, 79, 88, 91, 92, 93, 97, 107, 110, 129 and 130), and freely given to KKA^y mice (11 to 12 weeks old, 5 mice per group), a model of type-2 diabetes mellitus, for four days. During this period, water was given freely. Blood was sampled from orbital venous plexus and components were analyzed using the plasma separated from the blood. Total cholesterol levels were determined by using L type Wako Cholesterol (Wako Pure Chemical Industries, Ltd). Precipitation reagent for HDL cholesterol (Wako Pure Chemical Industries, Ltd.) was added to a part of the plasma to precipitate non-HDL lipoprotein, and cholesterol (HDL cholesterol) in the resulting supernatant was determined. The plasma anti-arteriosclerosis index [(HDL cholesterol/total cholesterol)×100] was calculated by using these cholesterol levels.
In the Table, “Total cholesterol lowering action (%)” represents the percent reduction (%) of total cholesterol level in the test compound administration group, when the total cholesterol level in the test compound non-administration group is taken as 100%. “Plasma anti-arteriosclerosis index-enhancing action (%)” represents the percent increase (%) of plasma anti-arteriosclerosis index in the test compound administration group, when the plasma anti-arteriosclerosis index in the test compound non-administration group is taken as 100%.

[1] = percent reduction of plasma glucose level vs non-administration group, read-out: hypoglycemic action (%)
[2] = percent reduction of plasma triglyceride level vs non-administration group, read-out: hypolipidemic action (%)

| SMILES | inhibition in vivo at 0.005 % (KKAY mice; [1]) [%] | inhibition in vivo at 0.005 % (KKAY mice; [2]) [%] | change in vivo at 0.005 % (KKA^y mice) [%] | inhibition in vivo at 0.005 % (KKA^y mice) [%] | melting point [°C] |
| --- | --- | --- | --- | --- | --- |
| Cc1oc(-c2ccccc2)nc1COc1ccc(COc2ccc(Cl)cc2CC(=O)O)cc1 [Example 18, 2-[5-chloro-2-[4-[(5-methyl-2-phenyl-4-oxazolyl)methoxy]benzyloxy]phenyl]acetic acid] | 41 | 34 | 12 | 23 | 160 to 161 |
| COc1cc(COc2ncccc2CC(=O)O)ccc1OCc1nc(-c2ccccc2)oc1C [Example 91, 2-[2-[3-methoxy-4-[(2-phenyl-5-methyl-4-oxazolyl)methoxy]benzyloxy]-3-pyridyl]acetic acid] | 50 | 67 | 16 | 6 | 145 to 146 |
| Cc1oc(-c2ccccc2)nc1CCc1noc(COc2ccccc2CC(=O)O)n1 [Example 107, 2-[2-[[3-[2-(5-methyl-2-phenyl-4-oxazolyl)ethyl]-1,2,4-oxadiazol-5-yl]methoxy]phenyl]acetic acid] | 40 | 39 | 9 | 13 | 120 to 121 |
| Cc1oc(-c2ccccc2)nc1COc1cc(COc2cccc(CC(=O)O)c2)ccn1 [Example 62, 2-[3-[2-[(5-methyl-2-phenyl-4-oxazolyl)methoxy]-4-pyridylmethoxy]phenyl]acetic acid] | 47 | 44 | 15 | 9 | 148 to 149 |
| Cc1oc(-c2ccccc2)nc1CCOc1ccc(COc2ccccc2CC(=O)O)cc1 [Example 58, 2-[2-[4-[2-(5-methyl-2-phenyl-4-oxazolyl)ethoxy]benzyloxy]phenyl]acetic acid] | 57 | 75 | 21 | 20 | 141 to 142 |
| Cc1oc(-c2ccccc2)nc1COc1ccc(COc2ccccc2CC(=O)O)cc1 [Example 11, 2-[2-[4-[(5-methyl-2-phenyl-4-oxazolyl)methoxy]benzyloxy]phenyl]acetic acid] | 56 | 84 | 18 | 23 | 153 to 154 |
| COc1cc(COc2ccccc2CC(=O)O)ccc1OCc1nc(-c2ccccc2)oc1C [Example 48, 2-[2-[3-methoxy-4-[(2-phenyl-5-methyl-4-oxazolyl)methoxy]benzyloxy]phenyl]acetic acid] | 53 | 50 | 20 | 17 | 165 to 166 |
| Cc1oc(-c2ccc3ccccc3c2)nc1COc1ccc(COc2ncccc2CC(=O)O)cc1 [Example 130, 2-[2-[4-[5-methyl-2-(2-naphthyl)-4-oxazolylmethoxy]benzyloxy]-3-pyridyl]acetic acid] | 55 | 63 | 15 | 16 | 155 to 156 |
| Cc1oc(-c2ccccc2)nc1COc1cc(COc2ncccc2CC(=O)O)on1 [Example 129, 2-[2-[[3-[(5-methyl-2-phenyl-4-oxazolyl)methoxy]-5-isoxazolyl]methoxy]-3-pyridyl]acetic acid] | 45 | 93 | 25 | 14 | 129 to 130 |
| Cc1ccc(OCc2ccc(OCc3nc(-c4ccccc4)oc3C)cc2)c(CC(=O)O)c1 [Example 15, 2-[5-methyl-2-[4-[(5-methyl-2-phenyl-4-oxazolyl)methoxy]benzyloxy]phenyl]acetic acid] | 49 | 60 | 4 | 25 | 115 to 116 |
